# In the supplement of paper PMC10307832:
# Experiments:
# Experiment in all cases: relative viability (nuclei count vs DMSO), 5 days (fraction); higher = more cells survive
# [1] = compound: CCC1=CN=CN=C1N2CCN(CC2)CC3=NC4=C(N3)C=C(C=C4)C(F)(F)F + Cc1cc(Nc2cc(N3CCN(C)CC3)nc(Sc3ccc(NC(=O)C4CC4)cc3)n2)n[nH]1 [Tozasertib] (partner 0.1 µM)
# Procedure, shortened: (§1)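 The day after seeding in 1536-well plates, lung cancer cell lines were treated by pin tool with a single drug, or with a fixed anchor-drug dose together with five library-drug doses (not always all listed) in √10 steps. After 5 days, a combined fix-and-stain solution (final 0.05% Triton X-100, 1% formaldehyde, 1 ug/ml Hoechst) was added. Nuclei counted on 4× images gave relative viability as treated counts over vehicle counts, reported as the median of duplicate plates.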
# [2] = compound: CCn1c(-c2nonc2N)nc2cnc(Oc3cccc(NC(=O)c4ccc(OCCN5CCOCC5)cc4)c3)cc21 + COc1cccc2cc(-c3nc([C@H]4CC[C@H](C(=O)O)CC4)n4ncnc(N)c34)[nH]c12 [OSI-027] (partner 0.5 µM)
# Procedure, shortened: as §1
# [3] = compound: N=C1NC(=O)/C(=C/c2ccc(O)cc2)S1 [Mirin] + C[C@]1(O)C[C@@H](c2nc(-c3ccc4ccc(-c5ccccc5)nc4c3)c3c(N)nccn32)C1 [Linsitinib] (partner 1 µM)
# Procedure, shortened: as §1
# [4] = compound: N=C1NC(=O)/C(=C/c2ccc(O)cc2)S1 [Mirin] + Nc1ncn([C@H]2C[C@H](O)[C@@H](CO)O2)c(=O)n1 [Decitabine] (partner 2 µM)
# Procedure, shortened: as §1
Cell Line,relative viability ([1]; first compound 0.04 µM),relative viability ([1]; first compound 0.1265 µM),relative viability ([1]; first compound 0.4 µM),relative viability ([1]; first compound 1.265 µM),relative viability ([1]; first compound 4 µM),relative viability ([2]; first compound 0.04 µM),relative viability ([2]; first compound 0.1265 µM),relative viability ([2]; first compound 0.4 µM),relative viability ([2]; first compound 1.265 µM),relative viability ([2]; first compound 4 µM),relative viability ([3]; first compound 0.25 µM),relative viability ([3]; first compound 0.7906 µM),relative viability ([3]; first compound 2.5 µM),relative viability ([3]; first compound 7.906 µM),relative viability ([3]; first compound 25 µM),relative viability ([4]; first compound 0.25 µM),relative viability ([4]; first compound 0.7906 µM),relative viability ([4]; first compound 2.5 µM),relative viability ([4]; first compound 7.906 µM),relative viability ([4]; first compound 25 µM)
NCI-H460,0.437,0.403,0.404,0.315,0.4,0.741,0.561,0.364,0.163,0.0569,0.809,0.759,0.764,0.649,0.474,0.517,0.504,0.467,0.505,0.539
NCI-H650,0.78,0.76,0.765,0.616,0.753,0.601,0.39,0.254,0.238,0.265,0.942,–,0.941,–,0.956,0.32,0.335,0.306,0.294,0.354
NCI-H1915,0.458,0.412,0.429,0.356,0.356,0.695,0.626,0.476,0.259,0.252,1.12,–,1.12,1.06,1.19,0.275,0.252,0.278,0.255,0.255
NCI-H1734,0.267,0.248,0.253,0.283,0.261,0.647,0.591,0.303,0.335,0.319,0.851,0.852,0.875,0.739,0.765,0.479,0.493,0.565,0.491,0.419
NCI-H1993,0.627,0.509,0.597,0.566,0.493,0.612,0.624,0.573,0.569,0.539,0.739,0.746,0.698,0.727,0.756,0.656,0.46,0.663,0.525,0.551
LK-2,0.157,0.193,0.171,0.193,0.166,0.201,0.225,0.18,0.196,0.206,0.321,0.317,0.516,0.282,0.174,0.161,0.206,0.299,0.21,0.227
HCC-78,0.572,0.549,0.446,0.434,0.376,0.43,0.429,–,0.574,0.625,0.537,0.585,0.519,0.445,0.475,0.514,0.764,0.698,0.565,0.657
NCI-H3122,0.423,0.405,0.384,0.345,0.439,1.4,0.961,0.729,0.326,0.737,0.994,1.04,1.06,1.15,1.05,0.41,0.431,0.432,0.372,0.353
HOP-62,0.43,0.362,0.39,0.381,0.39,0.998,0.734,0.56,0.422,0.469,1.09,0.856,0.937,–,0.866,0.221,0.188,0.203,0.224,0.218
NCI-H661,0.371,0.348,0.362,0.322,0.366,0.562,0.593,0.445,0.467,0.33,0.432,0.58,0.613,0.451,0.414,0.587,0.569,0.539,0.501,0.525
NCI-H358,0.0937,0.0935,0.101,0.112,0.109,0.84,0.73,0.579,0.816,0.523,0.734,0.719,0.836,0.57,0.373,0.238,0.194,0.242,0.169,0.177
BEN,0.462,0.528,0.559,0.433,0.477,0.27,0.267,0.243,0.266,0.24,0.821,1.37,0.973,0.809,0.502,0.553,0.711,0.661,0.67,0.522
SK-MES-1,0.893,0.872,0.797,0.918,0.865,0.651,0.601,0.403,0.386,0.359,1.06,1.22,1.18,1.07,1.26,0.347,0.446,0.372,0.292,0.329
NCI-H1755,0.627,0.503,0.596,0.515,0.521,0.714,0.738,0.466,0.476,0.45,1.03,1.12,1.01,1.06,1.1,0.725,0.775,0.703,0.717,0.752
